The text below walks through data of patent US5053337A, “DNA encoding an α2B -adrenergic receptor” (Neurogenetic Corporation, priority 1989, dated 1991).

Assay [1] deals with T1, human α2B -adrenergic receptor (NGC-α2B) (Homo sapiens, UniProt P18089).
T1 sequence (P18089 1-450): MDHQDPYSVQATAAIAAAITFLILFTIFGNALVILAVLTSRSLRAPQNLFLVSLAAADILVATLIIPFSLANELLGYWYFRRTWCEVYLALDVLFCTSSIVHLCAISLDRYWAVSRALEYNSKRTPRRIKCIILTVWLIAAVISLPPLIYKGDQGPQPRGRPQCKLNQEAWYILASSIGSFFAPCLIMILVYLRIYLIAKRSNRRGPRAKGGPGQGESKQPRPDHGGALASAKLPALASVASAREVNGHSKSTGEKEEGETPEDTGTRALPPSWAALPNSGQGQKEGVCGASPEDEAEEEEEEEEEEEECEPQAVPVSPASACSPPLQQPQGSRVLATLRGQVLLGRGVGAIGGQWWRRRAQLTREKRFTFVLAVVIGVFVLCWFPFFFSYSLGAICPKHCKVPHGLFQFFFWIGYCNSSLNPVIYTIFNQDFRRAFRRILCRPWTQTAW

Assay [2] concerns the target T1, human α2B -adrenergic receptor (NGC-α2B). This is another data set of the same source.
The target is the same in assay [3]. The assay can be described thus: biochemical.

The term inhibition denotes the percentage by which the read-out fell short of the control. `NCCc1c[nH]c2ccc(O)cc12` [Serotonin] yielded an inhibition in assay [1] of 15%. Besides, the “ability to compete with 3H-Rauwolscine for binding (in words)” value in assay [1] (pNGC-α2B transfected Cos-7 or Ltk- cell membranes) is “inability”. In the case of `O=C(c1ccc(F)cc1)C1CCN(CCn2c(=O)[nH]c3ccccc3c2=O)CC1` [Ketanserin], in assay [2], the “nH (Hill Coefficient)” value is 1.21 ± 0.12. The Ki is a dissociation constant, usually derived from enzyme kinetics or from competition with a known ligand. For `COc1cccc(OC)c1OCCNCC1COc2ccccc2O1` (centres unmarked) [WB-4101], the “nH (Hill Coefficient)” value in assay [2] is recorded as 1.5. Moreover, the affinity in assay [3] corresponds to a Ki of 55 nM.
